According to US11998595B2, “Telomerase polypeptide vaccine for treating cancer” (Ultimovacs AS, priority 2010, dated 2024):

Columns and labels:
T cells (patient PBMCs) = test: T-cell proliferation assay (3H-thymidine) of patient PBMC/T cells with hTERT peptides or transfected DC; type: cell-based, human; details: for response of clinical non-responders: GV1001-vaccinated; for immunological responses in clinical responders: patients responding / 7 clinical responders; for immunological responses in clinical non-responders: patients responding / 10 clinical non-responders; for proliferative T-cell response (detected or not): pancreas cancer patient vaccinated with DC/hTERT mRNA
Protocol: FIG. 1 is a bar graph summarising hTERT T-cell responses detected in pancreas cancer patient vaccinated with DC transfected with hTERT mRNA. In samples from various time points throughout a vaccination schedule, T-cell responses against 24 overlapping hTERT 15-mer peptides were detected. Proliferation in response to peptide-loaded PBMC was measured by ^3H-thymidine incorporation. A stimulation index of >2 is considered an immune response.
Peripheral blood mononuclear cells (PBMCs) were obtained prior to the four standard vaccinations, after 5 weeks and after 12 weeks. PBMCs were also obtained before each monthly booster vaccination. The PBMCs were isolated and frozen as previously described (Kyte et al, 2005). Thawed PBMCs were stimulated once in vitro with tDCs (not with mockDCs) and cultured and then tested in T cell proliferation assays (^3H Thymidine) as previously described (Kyte et al 2006). The T cells were tested in triplicates. Irradiated tDCs and mock-transfected DC controls (mockDCs) were used or PBMC with or without hTERT peptide as APCs. Negative controls with T cells only were included.
PBMCs from various time points were stimulated with an overlapping hTERT 15-mer peptide library or a 30-mer hTERT peptide, all from ProImmune and then tested in proliferation assays as above using irradiated PBMCs as APCs as described in (Bernhardt et al 2006).
T-cell responses to a hTERT peptide library (including the polypeptides from Table 1) were determined for T-cells from 5 patients in addition to the patients reported in Examples 1 and 2. The methods were the same as previously described in Example 1 or in Bernhardt et al 2006. In brief, PBMCs from various time points during vaccination were stimulated with the overlapping hTERT peptide library prior to testing for specific T-cell responses in proliferation assays.
The proliferative T-cell responses of each patient to a series of peptides were then determined as explained in Example 1. The results are tabulated in Table 5 and are shown graphically in FIG. 14 in which the peptide designations are referenced in Table 6 (the results for peptides 726 and GV1001 are shown only for comparison).
Four patients who were clinical non-responders following a lung cancer diagnosis and a GV1001 (SEQ ID NO. 10) peptide vaccination were studied. These patients were all stage IV lung cancer patients vaccinated with GV1001. […] The proliferative T-cell responses of each patient to a series of peptides were determined in the same manner as in Example 1, at one time point. The peak response of each patient during the study period to peptide GV1001 is also shown which confirms that each patient responded immunologically to GV1001 vaccination.
Six patients who were clinical non-responders following a melanoma cancer diagnosis and a GV1001 peptide (SEQ ID NO. 10) vaccination were studied. These patients were all stage IV melanoma patients and included in the same GV1001 vaccination trial as melanoma patients P7 and P8 who were long term survivors (see Example 6). […] Five of the patients also experienced progressive disease and one patient, designated Melanoma P3, experienced some stabilization of the disease but still had short survival. The proliferative T-cell responses of each patient to a series of peptides were determined in the same manner as in Example 1, at one time point. The peak response of each patient during the study period to peptide GV1001 is also shown which confirms that each patient responded immunologically to GV1001 vaccination.

[1] = tested on: CD8+ T cells (patient PBMCs); test: Pentamer staining of hTERT-specific CD8+ T cells by flow cytometry; type: cell-based, human; details: for peptide-specific CD8+ T lymphocytes detected by pentamer: HLA-B7+ lung cancer patient in complete remission after GV1001 vaccination, up to six years (FIG. 6); for patients with CTL responses shown by pentamer analysis: patients of Examples 1 to 8
pancreas cancer patient = test: Clinical course of pancreas cancer patient; type: in vivo, human
Protocol: The vaccine consisted of 5×10^6 autologous monocyte-derived dendritic cells loaded with hTERT mRNA. The patient received 4 weekly injections followed by monthly booster injections.
Adverse events were recorded and graded according to the NCI-common toxicity criteria, as previously reported (Kyte et al, 2006 Gene therapy). […] Objective tumour response was assessed by clinical examination and CT scans prior to start of vaccination and every 3 months during the vaccination. The tumour response was classified according to the Response Evaluation Criteria in Solid Tumors (RECIST) (Therasse P et al, 2000).

CD4+ T-cell clones = test: Peptide-specific T-cell clones from patients (HLA class II allele, peptide titration); type: cell-based, human
Text: A value above 2 is considered as a positive response.
T-cell clones specific for all of the peptides of 15- or 30-amino acids shown in Table 1 have also been obtained from patients. […] This is important in order to be able to induce strong immune response in vivo where peptide concentrations are lower.
In addition, the 15- and 30-mer peptides listed in Table 1 show reactivity in nearly all patients tested, which means they are promiscuous with respect to the HLA class II alleles on which they are presented and that they are applicable to nearly the whole population without any need for HLA-screening (see Table 2).

[2] = tested on: T cells stimulated with peptide-loaded autologous EBV-LCL; test: Intracellular cytokine staining of peptide-stimulated T cells; type: cell-based, human
[3] = four stage IV lung cancer patients
[4] = patient Colon ca P1, GV1001-vaccinated, clinical responder
[5] = patient Lung ca P1, GV1001-vaccinated, clinical non-responder, one time point
[6] = patient Lung ca P2, GV1001-vaccinated, clinical non-responder, one time point
[7] = patient Lung ca P3, GV1001-vaccinated, clinical non-responder, one time point
[8] = patient Lung ca P4, GV1001-vaccinated, clinical non-responder, one time point
[9] = patient Lung ca P5, GV1001-vaccinated, clinical responder
[10] = patient Lung ca P6, DC/hTERT mRNA-vaccinated, clinical responder, high background
[11] = patient Melanoma P1, GV1001-vaccinated, clinical non-responder, one time point
[12] = patient Melanoma P2, GV1001-vaccinated, clinical non-responder, one time point
[13] = patient Melanoma P3, GV1001-vaccinated, clinical non-responder, one time point
[14] = patient Melanoma P4, GV1001-vaccinated, clinical non-responder, one time point
[15] = patient Melanoma P5, GV1001-vaccinated, clinical non-responder, one time point
[16] = patient Melanoma P6, GV1001-vaccinated, clinical non-responder, one time point
[17] = patient Melanoma P7, GV1001-vaccinated, clinical responder
[18] = patient Melanoma P8, GV1001-vaccinated, clinical responder
[19] = patient Melanoma P9, non-vaccinated, spontaneous response
[20] = patient Pancreas ca P1, DC/hTERT mRNA-vaccinated, clinical responder, high background
[21] = HLA class II allele DR*04, 3 patients, malignant melanoma
[22] = GV1001 vaccinated lung cancer patient

Compound | response of clinical non-responders (T cells (patient PBMCs); [3]) | proliferative T-cell response (SI) (T cells (patient PBMCs); [4]) | proliferative T-cell response (SI) (T cells (patient PBMCs); [5]) | proliferative T-cell response (SI) (T cells (patient PBMCs); [6]) | proliferative T-cell response (SI) (T cells (patient PBMCs); [7]) | proliferative T-cell response (SI) (T cells (patient PBMCs); [8]) | proliferative T-cell response (SI) (T cells (patient PBMCs); [9]) | proliferative T-cell response (SI) (T cells (patient PBMCs); [10]) | proliferative T-cell response (SI) (T cells (patient PBMCs); [11]) | proliferative T-cell response (SI) (T cells (patient PBMCs); [12]) | proliferative T-cell response (SI) (T cells (patient PBMCs); [13]) | proliferative T-cell response (SI) (T cells (patient PBMCs); [14]) | proliferative T-cell response (SI) (T cells (patient PBMCs); [15]) | proliferative T-cell response (SI) (T cells (patient PBMCs); [16]) | proliferative T-cell response (SI) (T cells (patient PBMCs); [17]) | proliferative T-cell response (SI) (T cells (patient PBMCs); [18]) | proliferative T-cell response (SI) (T cells (patient PBMCs); [19]) | proliferative T-cell response (SI) (T cells (patient PBMCs); [20]) | immunological responses in clinical responders (T cells (patient PBMCs)) | response of clinical non-responders (T cells (patient PBMCs); six stage IV melanoma patients) | other results
RTFVLRVRAQDPPPE (listed as Homo sapiens) [SEQ ID NO. 7] | very low or no response | 20.6 | 1.3 | 1 | 1.2 | 0.4 | 1.1 | 0.8 | 0.9 | 1 | 0.7 | 1 | 1.2 | 4.8 | 4.9 | 2.8 | 5.7 | 2.5 | 5/7 | very low or no response | immunological responses in clinical non-responders (T cells (patient PBMCs)): 1/10
RPALLTSRL (listed as Homo sapiens) [SEQ ID NO. 5] |  |  |  |  |  |  |  |  |  |  |  |  |  |  |  |  |  |  |  |  | peptide-specific CD8+ T lymphocytes detected by pentamer [1]: stable CD8+ T cell population
Nc1ccn([C@@H]2O[C@H](CO)[C@@H](O)C2(F)F)c(=O)n1 [gemcitabine] |  |  |  |  |  |  |  |  |  |  |  |  |  |  |  |  |  |  |  |  | adverse effects (pancreas cancer patient; after 5 months): suspended due to adverse effects; Clinical response (pancreas cancer patient; before DC vaccination): disease stabilization
RPGLLGASVL (listed as Homo sapiens) [SEQ ID NO. 25] |  |  |  |  |  |  |  |  |  |  |  |  |  |  |  |  |  |  |  |  | peptide-specific CD8+ T lymphocytes detected by pentamer [1]: second minor CTL population
AERLTSRVKALFSVL (listed as Homo sapiens) [SEQ ID NO. 9] | very low or no response | 13.9 | 0.8 | 0.6 | 0.8 | 0.7 | 1.2 | 0.7 | 0.8 | 0.6 | 0.5 | 0.8 | 0.9 | 1.3 | 3.2 | 1 | 5.9 | 1 | 3/7 | very low or no response | immunological responses in clinical non-responders (T cells (patient PBMCs)): 0/10; patients with CTL responses shown by pentamer analysis [1]: 3
PGLLGASVLGLDDIH (listed as Homo sapiens) [SEQ ID NO. 55] |  |  |  |  |  |  |  |  |  |  |  |  |  |  |  |  |  |  |  |  | proliferative T-cell response (detected or not) (T cells (patient PBMCs)): recognized by T cells
RLTSRVKALFSVLNY (listed as Homo sapiens) [SEQ ID NO. 8] | very low or no response | 2.6 | 1.2 | 0.9 | 1.1 | 1.1 | 0.8 | 2.1 | 0.9 | 0.8 | 0.6 | 1.1 | 7.1 | 0.8 | 4.8 | 6.3 | 4.2 | 1.3 |  | very low or no response | Specific clones (CD4+ T-cell clones; [21]): 3
ALFSVLNYERARRPGLLGASVLGLDDIHRA [SEQ ID NO. 1] | very low or no response | 27.2 | 1 | 1.1 | 0.9 | 1.5 | 44.5 | 2.5 | 1.6 | 5.3 | 0.3 | 1 | 1.9 | 1.8 | 44.5 | 5.7 | 6.9 | 17.1 | 7/7 | very low or no response | CD8+ T cell population after stimulation with peptide-loaded versus non-peptide loaded targets ([2]; pancreas cancer patient (data not shown)): no difference in the CD8+ T cell population; CD4+ T cells secreting IFN-γ, IL-4 and TNF-α ([2]; pancreas cancer patient, one round of in vitro stimulation, autologous EBV-transformed B-cells loaded with same peptide): small population of multifunctional CD4+ T cells; T-cell response (T cells (patient PBMCs); [22]): very strong responses; reactivity in cancer patients tested (T cells (patient PBMCs); cancer patients, mostly vaccinated): reactivity in nearly all the cancer patients tested; T-cell response compared with the vaccine peptide GV1001 (T cells (patient PBMCs); one patient vaccinated with GV1001, certain time points (FIG. 3)): even stronger than to the vaccine peptide itself; proliferative T-cell response (detected or not) (T cells (patient PBMCs)): Proliferative T-cell responses were detected; immunological responses in clinical non-responders (T cells (patient PBMCs)): 1/10; T-cell clones derived from the culture with the peptide that were specific (CD4+ T-cell clones; [22]): 75%; Specific clones (CD4+ T-cell clones; HLA class II allele DR*07, specificity printed as 'Part of 660-689', 1 patient, colon cancer, Schroers et al, 2003): 3; Specific clones (CD4+ T-cell clones; HLA class II allele DR*14, 2 patients, colon cancer, lung cancer): 6 clones; patients with CTL responses shown by pentamer analysis [1]: Several
SVLNYERARRPGLLG (listed as Homo sapiens) [SEQ ID NO. 2] |  |  |  |  |  |  |  |  |  |  |  |  |  |  |  |  |  |  |  |  | Specific clones (CD4+ T-cell clones; HLA class II allele DR*01, 2 patients, malignant melanoma): T-cell lines; Specific clones (CD4+ T-cell clones; [21]): 3; Specific clones (CD4+ T-cell clones; HLA class II allele DR*08, 2 patients, malignant melanoma and lung cancer): >85
